The source of these data is patent EP1203770A1 (priority 1992, dated 1994).

Where two headings read alike, the source gives them in different places.

The target in this test is T1, HIV-1 protease (Human immunodeficiency virus type 1 group M subtype B, UniProt P04585).
T1 construct: The protease (or proteinase), consisting of only 99 amino acids, is among the smallest enzymes known
The test is described as follows: In vitro HIV protease inhibitory assay (HIV Protease FITC Assay). The format is biochemical. The following applies: for inhibition at 0.123 µM: HIV-1 Dose 0.123 uM; for inhibition at 0.37 µM: HIV-1 Dose 0.370 uM; for inhibition at 1.1 µM: HIV-1 Dose 1.100 uM; for inhibition at 3.3 µM: HIV-1 Dose 3.300 uM; for inhibition at 30 µM: HIV-1 Dose 30.000 uM. The gist of the method:
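Percent inhibition was read as fluorescence after avidin-bead capture and filtration separated FITC cleavage product from biotinylated substrate. Enzyme and substrate reacted 1 h, RT, dark, at pH 5.5 (0.1 M sodium acetate, 1.0 M NaCl, 0.05% NP-40).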

[1] abbreviates: read-out: HIV-1 Protease % Inhib.
Setting [2] is: HIV-1 Dose 10.000 uM, read-out: HIV-1 Protease % Inhib.
[3] abbreviates: HIV-1 Dose 100.000 uM, read-out: HIV-1 Protease % Inhib.
Where [4] appears, read: HIV-1 Dose 1.000 uM, read-out: HIV-1 Protease % Inhib.

In the case of `CCCC1(CCCc2ccccc2)CC(O)=C(C(C=Cc2ccccc2)c2ccccc2)C(=O)O1` (stereo not shown) [Example 238, 2H-Pyran-2-one, 5,6-dihydro-4-hydroxy-3-(1,3-diphenyl-2-propenyl)-6-(3-phenylpropyl)-6-propyl-], under setting [1], the inhibition at 0.123 µM is < 10%, the inhibition at 0.37 µM was found to be 20.5%, the inhibition at 1.1 µM amounted to 52.8% and the inhibition at 3.3 µM was 75.6%. Besides, under setting [1], the inhibition at 30 µM came to 87.1%. The inhibition at 10 µM under setting [2] came to 81%. Besides, the inhibition constant Ki (commonly a measure of affinity in units of concentration, obtained from inhibition or displacement) (read-out: HIV-1 FITC Ki) turned out to be 163 nM.

`CCC(c1ccccc1)c1c(O)c(Br)c(C(CC2CC2)CC2CC2)oc1=O` (stereo not shown) [Example 77]: the inhibition at 0.41 µM (HIV-1 Dose 0.410 uM, read-out: HIV-1 Protease % Inhib) amounted to 69.4%. Moreover, the inhibition at 1.23 µM (HIV-1 Dose 1.230 uM, read-out: HIV-1 Protease % Inhib) stood at 86.9%. For the same molecule, for the setting “HIV-1 Dose 3.700 uM, read-out: HIV-1 Protease % Inhib”, the inhibition at 3.7 µM was found to be 101%. Besides, the inhibition at 11 µM (HIV-1 Dose 11.000 uM, read-out: HIV-1 Protease % Inhib) amounted to 109%. Besides, the inhibition at 33 µM (HIV-1 Dose 33.000 uM, read-out: HIV-1 Protease % Inhib) is 108%. For the same molecule, the inhibition at 100 µM under setting [3] was found to be 110%. Where the note is “read-out: HIV-1 FITC Ki”, the Ki was 75 nM.

For the molecule `O=C1OC(Cc2ccccc2)(c2ccccc2)CC(O)=C1C(/C=C/c1ccccc1)c1ccccc1` (stereo not shown) [Example 172, 3-(1,3-Diphenyl-2-propenyl)-5,6-dihydro-4-hydroxy-6-phenyl-6-(phenylmethyl)-2H-pyran-2-one], under setting [1], the inhibition at 0.123 µM was < 10%, the inhibition at 0.37 µM was < 10%, the inhibition at 1.1 µM worked out at 11.7% and the inhibition at 3.3 µM turned out to be 29.5%. Also, under setting [1], the inhibition at 30 µM is 60.6%. The inhibition at 10 µM under setting [2] was determined as 56.8%.

Turning to `CC(C)CC(CC(C)C)c1cc(O)c(C(c2ccccc2)C2CC2)c(=O)o1` (stereo not shown) [Example 80, 3-(Cyclopropyl-phenyl-methyl)-4-hydroxy-6-(1-isobutyl-3-methyl-butyl)-pyran-2-one], the inhibition at 1 µM under setting [4] turned out to be 50.5%. Besides, under setting [2], the inhibition at 10 µM came out at 78.9%. Moreover, the inhibition at 100 µM under setting [3] is 102%.

For the molecule `O=c1oc(CCc2ccc(F)cc2)cc(O)c1C(c1ccccc1)C1CC1` (stereo not drawn) [Example 165, 3-(α-cyclopropylbenzyl)-4-hydroxy-6-(p-fluorophenethyl)-2H-pyran-2-one], under setting [1], the inhibition at 0.123 µM was < 10%, the inhibition at 0.37 µM was 10.5%, the inhibition at 1.1 µM was 32.9% and the inhibition at 3.3 µM stood at 60%. Also, the inhibition at 30 µM under setting [1] came out at 94.1%. The inhibition at 10 µM under setting [2] was 80.7%.

Regarding `CCC(c1ccccc1)c1c(O)cc(CCc2ccc(Br)cc2)oc1=O` (stereo not drawn) [Example 6, 6-(p-bromophenethyl)-3-(α-ethylbenzyl)-4-hydroxy-2H-Pyran-2-one], under setting [4], the inhibition at 1 µM was found to be 15.6%. Further, the inhibition at 10 µM under setting [2] amounted to 39.6%. Moreover, the inhibition at 100 µM under setting [3] was 69.7%.

Consider `CCC(Cc1ccccc1)c1cc(O)c(C(c2cccc(NS(=O)(=O)c3ccc(C)cc3)c2)C2CC2)c(=O)o1` (stereo not shown) [Example 246], for which, under setting [1], the inhibition at 0.123 µM was determined as 24.7%, the inhibition at 0.37 µM amounted to 60.1%, the inhibition at 1.1 µM was determined as 79.9% and the inhibition at 3.3 µM is 92.3%. Moreover, the inhibition at 30 µM under setting [1] stood at 93.3%. Besides, the inhibition at 10 µM under setting [2] stood at 92.7%. For the same molecule, the inhibition constant (Ki) (read-out: HIV-1 FITC Ki) was 21.6 nM.

For `CCC(C1=C(O)CC(Cc2ccccc2)(Cc2ccccc2)OC1=O)c1ccccc1` (stereo not shown) [Example 120, 6,6-Dibenzyl-4-hydroxy-3-(1-phenyl-propyl)-5,6-dihydro-pyran-2-one], under setting [1], the inhibition at 0.123 µM is < 10%, the inhibition at 0.37 µM is < 10%, the inhibition at 1.1 µM came out at 10.1% and the inhibition at 3.3 µM turned out to be 26.2%. Under setting [1], the inhibition at 30 µM came to 60.1%. For the same molecule, the inhibition at 10 µM under setting [2] is 46.4%.

On to `CCC(c1ccccc1)C1C(=O)CC(CC)(c2ccccc2)OC1=O` (stereo not drawn) [Example 26, 6-Ethyl-3-(α-ethylbenzyl)-6-phenyl-tetrahydropyran-2,4-dione], for which the Ki came out at 163 nM. Also, under setting [1], the inhibition at 1 µM turned out to be 38.7%, the inhibition at 10 µM turned out to be 78.8% and the inhibition at 100 µM was found to be 86.3%.

Turning to `CCC(Cc1ccccc1)c1cc(O)c(C(c2cccc(NC(=O)[C@H](Cc3cn(S(=O)(=O)c4ccc(C)cc4)cn3)NC(=O)OC(C)(C)C)c2)C2CC2)c(=O)o1` (stereo partly drawn) [Example 222, 3-(α-Cyclopropyl-meta-(N-α-tert-butyloxycarbonyl-N-im-p-toluenesulfonyl-L-histidylamino)benzyl)-6-(α-ethylphenethyl)-4-hydroxy-2H-pyran-2-one], under setting [1], the inhibition at 0.123 µM was found to be 19%, the inhibition at 0.37 µM was 51.7%, the inhibition at 1.1 µM was determined as 75.8% and the inhibition at 3.3 µM stood at 91%. The inhibition at 30 µM under setting [1] came to 95.8%. Besides, under setting [2], the inhibition at 10 µM was determined as 98.3%. The inhibition constant (Ki) (read-out: HIV-1 FITC Ki) amounted to 18.5 nM.

Consider `CCC(Cc1cccc(Cl)c1)c1cc(O)c(C(c2ccccc2)C2CC2)c(=O)o1` (stereo not drawn) [Example 156, 3-(α-cyclopropylbenzyl)-4-hydroxy-6-(α-ethyl-m-chlorophenethyl)-2H-pyran-2-one], for which, under setting [1], the inhibition at 0.123 µM was < 10%, the inhibition at 0.37 µM came out at 24.2%, the inhibition at 1.1 µM turned out to be 64.4% and the inhibition at 3.3 µM worked out at 82.6%. Also, under setting [1], the inhibition at 30 µM was found to be 92.3%. Further, under setting [2], the inhibition at 10 µM amounted to 87.3%. In addition, for the setting “read-out: HIV-1 FITC Ki”, the Ki turned out to be 65 nM.

Take `CCC(Cc1ccccc1)c1cc(O)c(C(c2cccc(NS(=O)(=O)c3ccc(C(C)(C)C)cc3)c2)C2CC2)c(=O)o1` (stereo not drawn) [Example 183, 3-(α-Cyclopropyl-meta-(4-tert-butylphenylsulfonylamino)benzyl)-6-(α-ethylphenethyl)-4-hydroxy-2H-pyran-2-one]: under setting [1], the inhibition at 0.123 µM is < 10%, the inhibition at 0.37 µM is 11.9%, the inhibition at 1.1 µM is 28.2% and the inhibition at 3.3 µM was found to be 60.6%. The inhibition at 30 µM under setting [1] stood at 90.8%. Further, the inhibition at 10 µM under setting [2] was determined as 88.9%.

As to `C=CC(c1ccccc1)c1c(O)cc(C)oc1=O` (stereo not shown) [PREPARATION 10, 4-Hydroxy-6-methyl-3-(1'-phenyl-2'-propenyl)-2-pyrone], the HIV activity result is given as “found to have HIV activity”. Moreover, the inhibition at 1 µM under setting [4] is < 10%. Moreover, the inhibition at 10 µM under setting [2] is < 10%. Also, the inhibition at 100 µM under setting [3] worked out at 43.5%.

As for “3-(.alpha.-ethylbenzyl)-4-hydroxy-6-propyl-2H-Pyran-2-one [Example 9]”, the midpoint of inhibition, the IC50, lay at 19200 nM. The “HIV-1 Protease % Inhib” value (HIV-1 Dose 1.000 uM) is reported as 16.27%. Further, the “HIV-1 Protease % Inhib” value (HIV-1 Dose 10.000 uM) was determined as 73.49%. Under “HIV-1 Dose 100.000 uM”, the “HIV-1 Protease % Inhib” value was determined as 98.35%.

As to `C=CC(C1=C(O)CC(CCc2ccccc2)(CC(C)C)OC1=O)c1ccccc1` (stereo not shown) [Example 233, 2H-Pyran-2-one, 5,6-dihydro-4-hydroxy-6-(2-methylpropyl)-6-(2-phenylethyl)-3-(1-phenyl-2-propenyl)-], under setting [1], the inhibition at 0.123 µM was < 10%, the inhibition at 0.37 µM worked out at 28.9%, the inhibition at 1.1 µM is 64.9% and the inhibition at 3.3 µM was 83.1%. Under setting [1], the inhibition at 30 µM stood at 59.4%. For the same molecule, the inhibition at 10 µM under setting [2] came out at 93.7%. In addition, the Ki (read-out: HIV-1 FITC Ki) came out at 24.8 nM.

Take `O=c1oc(C(CC2CC2)CC2CC2)cc(O)c1C(Cc1ccccc1)Cc1ccccc1` [Example 79, 3-(1-Benzyl-2-phenyl-ethyl)-6-(2-cyclopropyl-1-cyclopropylmethyl-ethyl)-4-hydroxy-pyran-2-one]: under setting [1], the inhibition at 0.123 µM came out at 39.9%, the inhibition at 0.37 µM is 76.7%, the inhibition at 1.1 µM amounted to 106% and the inhibition at 3.3 µM was 111%. Moreover, the inhibition at 30 µM under setting [1] came out at 117%. Also, the inhibition at 10 µM under setting [2] came to 122%. Further, under “read-out: HIV-1 FITC Ki”, the inhibitory constant (Ki) was 33 nM.
